According to patent US20110034384A1, “COMBINATION VEGFR2 THERAPY WITH mTOR INHIBITORS” (Bristol-Myers Squibb Company, priority 2007, published 2011):
“Also recorded” adds a separate entry of the source.

B1: Comp-I: the VEGFR2 specific inhibitor represented by SEQ ID NO: 4; a VEGFR-2 binding 10Fn3 fibronectin based scaffold polypeptide (protein)
chain: GEVVAATPTSLLISWRHPHFPTRYYRITYGETGGNSPVQEFTVPLQPPTATISGLKPGVDYTITVYAVTDGRNGRLLSIPISINYRTEIDKPCQ

What was measured:
Type in all cases: in vivo, nude mice
[1] = system: Colo205 tumor; experiment: Colo205 xenograft: Comp-I, Temsirolimus and their combination (Example 1); settings: for Colo205 tumor growth inhibition (in words): 21 days under treatment, FIG. 1, Table 2; for Tumor Volume Average: i.p., Comp-I 60 mg/kg TIW, Temsirolimus 20 mg/kg BIW, Combo 60/20 mg/kg TIW/BIW
Protocol: Human Colo205 cells were injected subcutaneously into the flanks of nude mice. Mice were randomized and treatments initiated when tumors reached an average size of 235 mm^3. Optimal doses of Comp-I (the VEGFR2 specific inhibitor represented by SEQ ID NO: 4) and Temsilorimus were administered intraperitoneally to Colo-205 tumor bearing-mice in doses and schedules as indicated in Table 1. Tumor growth was evaluated for 21 days under treatment (FIG. 1). Mice were taken off treatment after day 21 until day 57, with a continuous assessment of tumor growth (FIG. 2). Control was euthanized on Day 41. [table] Tumors were measured with calipers twice a week. Tumor volumes (mm^3) were calculated by the formula [π/6 (L×W^2)], where L represents the largest tumor diameter (mm) and W represents the smallest tumor diameter (mm). Tumor measurements were noted as absolute values. Animal body weights were determined weekly during the course of the experiment. Tumor Growth Inhibition (TGI) was calculated as the percent tumor growth of treated (T) groups from control group (vehicle, C). Tumor growth was calculated by subtracting initial tumor volume (at day 0) from the final tumor volume at the end of the experiment. TGI=(1−[T-T0]/[C-C0])*100.

[2] = system: Colo205 tumor; experiment: Colo205 xenograft: Comp-I vs. Bevacizumab, Temsirolimus added at Day 17 (Example 2); settings: for Day 22 (TV, mm3) (Mean) / Day 22 (TV, mm3) Average ± STDErr: Temsirolimus 10 mg/kg BIW added on Day 17 to Bevacizumab 10 mg/kg BIW, Comp-I 80 mg/kg TIW or vehicle (n = 4); for Day 1 (TV, mm3) (Mean) / Day 1 (TV, mm3) Average ± STDErr: i.p.; for Day 1 (TV, mm3) (Mean) / Day 1 (TV, mm3) Average ± STDErr / Day 19 (TV, mm3) (Mean) / Day 19 (TV, mm3) Average ± STDErr / Percentage of tumor growth inhibition: Bevacizumab 10 mg/kg BIW, Comp-I 80 mg/kg TIW; for Day 19 (TV, mm3) (Mean) / Day 19 (TV, mm3) Average ± STDErr: Temsirolimus 10 mg/kg BIW added on Day 17; for Day 19 (TV, mm3) (Mean) / Day 19 (TV, mm3) Average ± STDErr / Percentage of tumor growth inhibition: Day 19; for Percentage of tumor growth inhibition: Temsirolimus added on Day 17
Protocol: (§1) Tumors were measured with calipers twice a week. Tumor volumes (mm^3) were calculated by the formula [π/6 (L×W^2)], where L represents the largest tumor diameter (mm) and W represents the smallest tumor diameter (mm). Tumor measurements were noted as absolute values. Animal body weights were determined weekly during the course of the experiment. Tumor Growth Inhibition (TGI) was calculated as the percent tumor growth of treated (T) groups from control group (vehicle, C). Tumor growth was calculated by subtracting initial tumor volume (at day 0) from the final tumor volume at the end of the experiment. TGI=(1−[T-T0]/[C-C0])*100.
Human Colo205 cells were injected subcutaneously into the flanks of nude mice. Mice were randomized and treatments initiated when tumors reached an average size of 167 mm^3. Comp-I and Bevacizumab were administered intraperitoneally to Colo-205 tumor bearing-mice in doses and schedules as indicated in Table 4. Temsirolimus treatment (10 mg/kg, BIW) was initiated on Day 17 added to Comp-I and Bevacizumab treatments on Day 17. Half the mice (n=4) in the vehicle group were initiated on torisel the same day and the other half (n=4) remained under vehicle treatment. Both anti-angiogenic treatments reduced […] to similar levels by Day 22 (FIG. 4). Percentage of tumor growth inhibition was determined as follows: Day 19/Comp-I (89%), Day 19/Bevacizumab (87%).

[3] = system: Colo205 tumor; experiment: Colo205 xenograft: Comp-I vs. Bevacizumab, Temsirolimus added at Day 9 (Example 3); settings: for Day 14 (TV, mm^3) (Mean) / Day 14 (TV, mm^3) Average ± STDErr: Temsirolimus 10 mg/kg BIW added on Day 9 to Bevacizumab 10 mg/kg BIW, Comp-I 80 mg/kg TIW or vehicle (n = 4); for Day 1 (TV, mm^3) (Mean) / Day 1 (TV, mm^3) Average ± STDErr: i.p.; for Day 1 (TV, mm^3) (Mean) / Day 1 (TV, mm^3) Average ± STDErr / Day 8 (TV, mm^3) (Mean) / Day 8 (TV, mm^3) Average ± STDErr / Percentage of tumor growth inhibition: Bevacizumab 10 mg/kg BIW, Comp-I 80 mg/kg TIW; for Day 8 (TV, mm^3) (Mean) / Day 8 (TV, mm^3) Average ± STDErr: Day 8 (before Temsirolimus)
Protocol: as §1
Human Colo205 cells were injected subcutaneously into the flanks of nude mice. Mice were randomized and treatments initiated when tumors reached an average size of 411 mm^3. Comp-I and Bevacizumab were administered intraperitoneally to Colo-205 tumor bearing-mice in doses and schedules as indicated in Table 5. Temsirolimus (10 mg/kg, BIW) was added to Comp-I and Bevacizumab treatments on Day 9. Half the mice (n=4) in the vehicle group were initiated on torisel the same day and the other half (n=4) remained under vehicle treatment Both anti-angiogenic treatments reduced […] to similar levels by Day 14 (FIG. 5).

[4] = system: HT1080 tumor; experiment: HT1080 xenograft: Comp-I vs. Bevacizumab, Temsirolimus added at Day 23 (Example 4); settings: for Day 1 (TV, mm^3) (Mean) / Day 1 (TV, mm^3) Average ± STDErr / Day 23 (TV, mm^3) (Mean) / Day 23 (TV, mm^3) Average ± STDErr: i.p.
Protocol: Human HT1080 cells were injected subcutaneously into the flanks of nude mice. Mice were randomized and treatments initiated when tumors reached an average size of 201 mm^3. Comp-I and Bevacizumab were administered intraperitoneally to HT1080 tumor bearing-mice in doses and schedules as indicated in Table 6. Temsirolimus (10 mg/kg, BIW) was added to Comp-I and Bevacizumab treatments on Day 23. Both anti-angiogenic treatments reduced […] as measured on Day 27 (FIG. 6).

[5] = Day 11, Temsirolimus 10 mg/kg BIW added on Day 9
[6] = Bevacizumab 5 mg/kg BIW, Comp-I 100 mg/kg TIW
[7] = QW groups: Bevacizumab 5 mg/kg QW, Comp-I 100 mg/kg QW

Row | Molecule | Colo205 tumor growth inhibition (in words) [1] | Tumor Volume Average ([1]; Day 1) | Tumor Volume Average ([1]; Day 5) | Tumor Volume Average ([1]; Day 8) | Tumor Volume Average ([1]; Day 11) | Tumor Volume Average ([1]; Day 14) | Tumor Volume Average ([1]; Day 19) | Tumor Volume Average ([1]; Day 21) | Day 22 (TV, mm3) (Mean) [2] | Day 22 (TV, mm3) Average ± STDErr [2] | Day 14 (TV, mm^3) (Mean) [3] | Day 14 (TV, mm^3) Average ± STDErr [3] | Day 1 (TV, mm3) (Mean) [2] | Day 1 (TV, mm3) Average ± STDErr [2] | Day 19 (TV, mm3) (Mean) [2] | Day 19 (TV, mm3) Average ± STDErr [2] | Percentage of tumor growth inhibition [2] | Day 1 (TV, mm^3) (Mean) [3] | Day 1 (TV, mm^3) Average ± STDErr [3] | Day 8 (TV, mm^3) (Mean) [3] | also measured
1 | CO[C@H]1C[C@@H]2CC[C@@H](C)[C@@](O)(O2)C(=O)C(=O)N2CCCC[C@H]2C(=O)O[C@H]([C@H](C)C[C@@H]2CC[C@@H](OC(=O)C(C)(CO)CO)[C@H](OC)C2)CC(=O)[C@H](C)/C=C(\C)[C@@H](O)[C@@H](OC)C(=O)[C@H](C)C[C@H](C)/C=C/C=C/C=C/1C [Temsirolimus, temsirolimus] | equally inhibited | 237.19 mm^3 | 287.19 mm^3 | 313.73 mm^3 | 354.14 mm^3 | 378.44 mm^3 | 395.95 mm^3 | 422.42 mm^3 | 667.5 mm3 | 612.3 ± 99.5 mm3 | 821.1 mm^3 | 849.6 ± 106.6 mm^3 |  |  |  |  |  |  |  |  | 
2 | Bevacizumab: anti-angiogenic treatment; Bevacizumab-mediated VEGF inhibition |  |  |  |  |  |  |  |  | 250.7 mm3 | 246.5 ± 21.2 mm3 | 458.9 mm^3 | 455.1 ± 36.2 mm^3 | (166.7) mm3 | 167.7 ± 7.7 mm3 | (299.2) mm3 | 290.3 ± 24.6 mm3 | 87% | (398.6) mm^3 | 413.0 ± 32.9 mm^3 | (511.8) mm^3 | Day 8 (TV, mm^3) Average ± STDErr [3]: 519.0 ± 50.0 mm^3; Percentage of tumor growth inhibition ([3]; Day 8): 38.99%; Percentage of tumor growth inhibition [3, 5]: 82.2%; Day 1 (TV, mm^3) (Mean) [4, 6]: 191.9 mm^3; Day 1 (TV, mm^3) Average ± STDErr [4, 6]: 201.6 ± 19.1 mm^3; Day 1 (TV, mm^3) (Mean) [4, 7]: 195.8 mm^3; Day 1 (TV, mm^3) Average ± STDErr [4, 7]: 202.0 ± 18.8 mm^3; Day 23 (TV, mm^3) (Mean) [4, 6]: 517.4 mm^3; Day 23 (TV, mm^3) Average ± STDErr [4, 6]: 486.9 ± 34.6 mm^3; Day 23 (TV, mm^3) (Mean) [4, 7]: 598.3 mm^3; Day 23 (TV, mm^3) Average ± STDErr [4, 7]: 619.3 ± 69.6 mm^3
3 | B1 | inhibits Colo205 tumor growth to the same extent as the mTOR inhibitor Temsirolimus; also recorded: equally inhibited | 235.25 mm^3 | 301.95 mm^3 | 325.42 mm^3 | 369.21 mm^3 | 403.32 mm^3 | 426.71 mm^3 | 455.84 mm^3 | 247.1 mm3 | 239.4 ± 18.3 mm3 | 449.2 mm^3 | 444.6 ± 30.2 mm^3 | (166.2) mm3 | 167.4 ± 8.1 mm3 | (293.1) mm3 | 289.4 ± 21.5 mm3 | 89% | (417.2) mm^3 | 413.5 ± 28.7 mm^3 | (505.8) mm^3 | Day 8 (TV, mm^3) Average ± STDErr [3]: 502.5 ± 33.6 mm^3; Percentage of tumor growth inhibition ([3]; Day 8): 53.03%; Percentage of tumor growth inhibition [3, 5]: 91.5%; Day 1 (TV, mm^3) (Mean) [4, 6]: 183.4 mm^3; Day 1 (TV, mm^3) Average ± STDErr [4, 6]: 205.1 ± 20.9 mm^3; Day 1 (TV, mm^3) (Mean) [4, 7]: 207.0 mm^3; Day 1 (TV, mm^3) Average ± STDErr [4, 7]: 203.4 ± 18.7 mm^3; Day 23 (TV, mm^3) (Mean) [4, 6]: 460.5 mm^3; Day 23 (TV, mm^3) Average ± STDErr [4, 6]: 432.8 ± 23.6 mm^3; Day 23 (TV, mm^3) (Mean) [4, 7]: 492.9 mm^3; Day 23 (TV, mm^3) Average ± STDErr [4, 7]: 533.4 ± 47.9 mm^3; sensitivity of tumor growth, Comp-I vs. Bevacizumab (in words) ([4]; HT1080 model): tumor growth is more sensitive to Comp-1-mediated VEGFR-2 inhibition than to Bevacizumab-mediated VEGF inhibition
